For one series, the system named is A549 xenograft tumor. Put plainly: In vivo anti-tumor activity, A549 xenograft tumor model. Further details: species or system BALB/c nude mice. The settings on record: 3 mg/kg once every 3 d; after four weeks. The method, then: A549 xenograft tumor model was obtained by subcutaneously injecting 1 × 10^6 cells (A549) into BALB/c nude mice. When the average size of the tumor reached about 100 mm^3, the tumor-bearing mice were randomly divided into 6 groups (6 mice in each group). The average size of tumors was calculated according to the equation 0.5 × a × b × b (a is the length, b is the width). The 700, 350, and 175 mg/kg dose groups of the ABMs were suspended in a specific solvent and then administered subcutaneously once a week, 4 times in total. […] The vehicle (microsphere without AB) group was given once a week for a total of 4 times. The model (saline) group was given once a day as a control. Meanwhile, a group of mice without any treatment (WT group) was selected as the standard group for comparison. The changes in food intake, water consumption, and mental state of the nude mice were observed and recorded every day after administration. The body weight and tumor size of the tumor-bearing mice were measured twice a week, and the relative tumor volume (RTV) of the nude mice was calculated by Equation (7). RTV = Vt/V0(7) where Vt is the tumor volume at each measurement and V0 is the tumor volume before administration. The relative tumor growth rate T/C (%) was calculated according to the following equation to evaluate the anti-tumor activity of each group. (8) T/C(%)=TRTV/CRTV×100%

The subject of series [1] is mouse lung cancer metastasis models. Nature of the series: Preliminary experiments: mouse lung cancer metastasis models. In kind it is in vivo.
Series [2] has as its system HT-29, HepG2, SGC-7901, A549, K562, B16-F10, and Du145 cells. Put plainly: Preliminary experiments: tumor cell proliferation. In kind it is cell-based.
Series [3] in a line: Tolerance of AB dissolved in Tween-80, ethanol and PEG-40. In kind it is in vivo.
On the set-up of series [4]: method as in doi:10.1002/cjoc.19830010106. The settings on record: cited from earlier work.
The test system of a further series is A549 cells. Put plainly: Anti-tumor cell proliferation activity (MTT method). Conditions: mean ± SD, n = 3. In kind it is cell-based, human. As to the method: The human non-small cell lung cancer (NSCLC) cell line (A549) was from American Type Culture Collection (ATCC, Manassas, VA, USA). RPMI-1640 medium and fetal calf serum (FBS) were from Gibco Life Technologies (Grand Island, NY, USA). A549 cells were inoculated in RPMI 1640 medium (containing 10% FBS) in a 37 °C, 5% CO2 cell incubator for culture and storage.
A549 cells were seeded into a 96-well plate at a concentration of 5 × 10^3 per well. AB and ABMs were prepared with DMSO and a specific solvent to make the final concentration per well was 6.25, 12.5, 25, 50, and 100 μM. Here, the dosage of AB in ABMs is calculated according to the actual cumulative release amount in the solution, which is calculated as 55% in 96 h. In the experiment, the control group consisted of cells treated with DMSO and a specific solvent of ABMs and cells without any treatment. The MTT method was used to measure the optical density (OD) values of the cells at 24, 48, 72, and 96 h after treatment. The inhibition rate (IR) of each group of samples on tumor cell growth was calculated according to the following equation:(6) IR(%)=OD(solvent)−OD(exp)/OD(solvent)×100% where OD(solvent) is the mean OD of the solvent group and OD(exp) is the mean OD of the experimental group.
A dose–response curve could be obtained with different concentrations of the samples on the tumor cell growth inhibition, from which the half-inhibition concentration (IC50) of the sample can be obtained. There are five replicate holes in each group, and the average value of the five holes was taken. Three parallel experiments were carried out for each sample, and the results were expressed as mean ± standard deviation (mean ± SD). According to the inhibition rate of each group, the IC50 of AB and ABMs at each time point was calculated by the statistical software IBM SPSS Statistics 20.

The test system of series [5] is normal human embryonic liver cells L-02. Nature of the series: Preliminary experiments: toxicity to normal cells. In kind it is cell-based.
Series [6] in a line: PK study in SD rats (AB plasma concentration by LC-MS). The settings on record: 3.5 mg/kg; for Cmax / half-life: Sprague-Dawley, rat, plasma. In kind it is in vivo, Sprague-Dawley rats. The method, then:
There were 9 SD rats equally separated into three groups. The first two groups were injected with AB at a dose of 3.5 mg/kg, through different injection routes, either subcutaneous or intramuscular injections. Collect whole blood from the jugular vein of each rat one day before administration and 0, 0.08, 0.16, 0.25, 0.5, 1, 2, 4, 6, and 24 h after administration. The third group was a subcutaneous injection of ABMs with a dose of 50 mg/kg. The whole blood was collected from the jugular vein of each rat one day before the administration and 0.08, 0.25, 0.5, 1, 2, 4, 6, 24, 72, 168, and 240 h after administration. A 1.0 mL disposable syringe was used, and the blood volume was 0.2 mL each time. The whole blood sample was placed in a centrifuge tube (1.5 mL, Xinkang Medical, Taizhou, Jiang Su, China) containing 2000 KIU aprotinin and EDTA-K2 anticoagulant. Turn the centrifuge tube upside down to mix the anticoagulant with the blood thoroughly. Before centrifugation, it should be stored in a pre-cooled CoolRack module (Rack M30, Corning, NY, USA) on wet ice and centrifuged within 15 min after collection. Centrifugation was performed at 4000 rpm, 15 min, 4 °C. After centrifugation, the plasma was separated, the supernatant transferred to the label sample tube (the transfer process needs to be operated on ice), and the sample was checked and stored in the −80 °C refrigerator until analysis.
LC-MS spectrometry (TQ XS, Waters, Milford, MA, USA) was used to detect the plasma concentration of AB. The electrospray ion source (ESI+) in positive ion mode has an ion source temperature of 150 °C, a solvent removal temperature of 500 °C, and a capillary voltage of 0.5 kV. Multiple reaction monitoring (MRM) mass spectrometry parameters are: AB, m/z 249.1→189.1, cone voltage 20 V, collision voltage 10 eV; aripiprazole-D8 (internal reference), m/z 456.3→293.2, the cone voltage is 20 V, and the collision voltage is 25 eV.
SD male rat plasma 50 μL and 200 μL of precipitant (0.1% formic acid in acetonitrile, containing 0.2 ng/mL aripiprazole-D8 as an internal reference) was added into a 96-well plate, and the plate was shaken at 750 rpm (Compact Digital MicroPlate Shaker, Thermo fisher, Waltham, MA, USA) for 10 min. Next, the sample was centrifuged (Legend Micro 21R, Thermo fisher, Waltham, MA, USA) at 4200 rpm for 25 min. After centrifugation, 60 μL of the supernatant was added to a 96-well plate, and then 140 μL of pure water was added, and the plate was shaken at 750 rpm for 5 min before the sample was injected for detection.
HPLC was equipped with a C18 column (Waters, BEH, 130 Å, 2.1 × 50 mm, 1.7 μm), and the mobile phase consisted of elution A (0.1% w/v citric acid in 5%w acetonitrile aqueous solution) and elution B (0.1% w/v citric acid in 95%w acetonitrile aqueous solution) at the ratio of 70:30 v/v. The flow rate was set at 1 mL/min, and the injection volume was 10 μL. The column temperature was set at 60 °C.

For series [7] the following is noted: cited from earlier work.

Read-outs that look alike come from different tables or passages of the source.

`N.N.[Cl][Pt][Cl]` [DDP, Cis-platinum diamine-dichloride]: the “tumor size (weight of dissected tumor)” value in the series on A549 xenograft tumor was 0.38 ± 0.04 g.
On to `C=C1C(=O)O[C@@]23[C@H]1CC[C@@H](C)[C@@H]2CC[C@@]1(C)O[C@@H]31` [AB, Arteannuin B], for which the therapeutic effect result in series [1] is “good therapeutic effect”. The “proliferation of tumor cells” value in series [2] was “inhibit the proliferation”. Also, the tolerance after administration result in [3] was “significant intolerance symptoms”. Further, the antimalarial activity entry in series [4] is “no antimalarial activity”. Moreover, the IC50 in the series with A549 cells (96 h (day four)) turned out to be 16.2 ± 4.78 µM; with A549 cells (Homo sapiens, A549, 24 h, 24 h), 211 ± 63.2 µM; in the series with A549 cells (Homo sapiens, A549, 48 h, 48 h), 53.1 ± 22.5 µM; with A549 cells (Homo sapiens, A549, 72 h, 72 h), 27.5 ± 6.71 µM; in the series on A549 cells (Homo sapiens, A549, 96 h, 96 h (day four)) it was 16 µM. In [5], the “toxicity to normal cells” value is given as “no obvious toxicity”. Moreover, the Cmax was found to be 74.5 ± 34.2 ng/mL in series [6] (male SD rats, IM, mean ± SEM) and 236 ± 100 ng/mL in series [6] (male SD rats, SC, mean ± SEM). For the same compound, the half-life is 2.3 h in [6] (male SD rats, IM, mean ± SEM, read-out: t1/2 (converted)); 1.15 h in series [6] (male SD rats, SC, mean ± SEM, read-out: t1/2 (converted)); roughly 1 h in [6] (male, rats, read-out: elimination half-life (converted)). Moreover, the AUClast in [6] (male SD rats, IM, mean ± SEM) amounted to 0.618 ± 0.131 ng·days/mL; in [6] (male SD rats, SC, mean ± SEM) it was 2.538 ± 0.842 ng·days/mL. Moreover, the “AUClast from subcutaneous injection relative to intramuscular injection” value in series [6] (rats) is given as “about four times that of intramuscular injection”. Moreover, in [7], the elimination half-life result was “about 1 h”. In addition, the bioavailability in [7] (in animals) is 19–35%.

The record behind these values is paper PMC8399913, “Development of Arteannuin B Sustained-Release Microspheres for Anti-Tumor Therapy by Integrated Experimental and Molecular Modeling Approaches” (Pharmaceutics, 2021).
